Like-named read-outs stand apart in the source and are kept apart here.
What was measured:
[1] = test system: P388/DX Johnson murine leukaemia; settings: for survival, cytotoxic drug in the absence of XR9051: P388/DX Johnson-resistant leukaemia-bearing mice, cytotoxic drug alone; for survival of resistant leukaemia-bearing mice, combination vs cytotoxic drug alone: days 1-5, P < 0.01
[2] = test system: P388/P-sensitive murine leukaemia; test: In vivo efficacy, P388/P sensitive murine leukaemia model (survival); set-up: species or system mouse; settings: for lifespan of tumour-bearing animals vs vehicle alone: vincristine 0.1 mg kg-1 i.p. days 1-5 or doxorubicin 2 mg kg-1 i.p. days 1, 4 and 7, P < 0.005
[3] = test system: P388 cells transfected with the human MDR1 gene; settings: ref Yang et al, 1994; cited from earlier work
P388/DX Johnson cells = settings: the cell line used in our studies
in vivo = format: in vivo; set-up: maximum concentration in tumour tissue / maximum concentration in tumour tissue (molar) / concentrations in H69/LX4 MDR tumours over a 25 h period: unit not given here
[4] = Pharmacokinetics of XR9051 after single i.v. dose in Balb/c mice (plasma, liver, heart, brain; HPLC); format: in vivo, mouse; settings: for half-life: two-compartment model
[5] = test system: murine and human P-gp-expressing cell lines; set-up: method as in Dale et al, 1998; settings: co-exposure, several murine and human P-gp-expressing cell lines; ref Dale et al, 1998; cited from earlier work
[6] = test system: H69/LX small cell lung carcinoma xenografts; format: in vivo
[7] = test system: CH1/DOXr ovarian carcinoma xenografts; format: in vivo; settings: for tumour growth rate compared with either drug alone: P < 0.01
[8] = test system: MC26 murine colon carcinoma; format: in vivo
[9] = Plasma levels of XR9051 after single oral dose in Balb/c mice; format: in vivo; settings: mouse
[10] = test system: 2780AD ovarian carcinoma xenografts; format: in vivo
MC26 cells = test: In vitro sensitization of MC26 cells to doxorubicin; format: cell-based, mouse; settings: 500 nM XR9051, in vitro (unpublished data)
[11] = single i.v. 20 mg kg-1, H69/LX4 SCLC xenograft-bearing athymic mice

COc1cccc2c1C(=O)c1c(O)c3c(c(O)c1C2=O)C[C@@](O)(C(=O)CO)C[C@@H]3O[C@H]1C[C@H](N)[C@H](O)[C@H](C)O1 [doxorubicin, reference compound]
survival, cytotoxic drug in the absence of XR9051 [1]: little or no effect on survival
lifespan of tumour-bearing animals vs vehicle alone [2]: increased the lifespan

CC[C@]1(O)C[C@H]2CN(CCc3c([nH]c4ccccc34)[C@@](C(=O)OC)(c3cc4c(cc3OC)N(C=O)[C@H]3[C@@](O)(C(=O)OC)[C@H](OC(C)=O)[C@]5(CC)C=CCN6CC[C@]43[C@@H]65)C2)C1 [vincristine, reference compound]
survival, cytotoxic drug in the absence of XR9051 [1]: little or no effect on survival
resistance factor of cell line to vincristine [3]: 22 fold
resistance factor of cell line to vincristine (P388/DX Johnson cells): 70 fold
lifespan of tumour-bearing animals vs vehicle alone [2]: increased the lifespan

COc1cc2c(cc1OC)CN(CCc1ccc(NC(=O)c3cccc(/C=c4\[nH]c(=O)/c(=C/c5ccccc5)n(C)c4=O)c3)cc1)CC2 [XR9051, N-(4-(2-(6,7-dimethoxy-1,2,3,4-tetrahydro-2-isoquinolyl)ethyl)phenyl)-3-((3Z,6Z)-6-benzylidene-1-methyl-2,5-dioxo-3-piperazinylidene)methylbenzamide]
AUC (in vivo; athymic, mouse, tumour (H69/LX4 SCLC xenograft), iv, single i.v. 20 mg kg-1, H69/LX4 tumour, read-out: AUC0- in tumour tissue): 57.1 µg·h/mL
half-life (in vivo; athymic, mouse, tumour (H69/LX4 SCLC xenograft), iv, single i.v. 20 mg kg-1, H69/LX4 tumour, read-out: apparent elimination half-life in tumour tissue (converted)): 8.79 h
Tmax (in vivo; athymic, mouse, tumour (H69/LX4 SCLC xenograft), iv, single i.v. 20 mg kg-1, H69/LX4 tumour, read-out: time of maximum concentration in tumour tissue): 1.5 h
concentrations in H69/LX4 MDR tumours over a 25 h period (in vivo; single i.v. 20 mg kg-1, 25 h period): 0.6-9.4
maximum concentration in tumour tissue (in vivo; [11]): 6.94
maximum concentration in tumour tissue (molar) (in vivo; [11]): 9.4
linearity of intravenous pharmacokinetic parameters ([4]; i.v., between 20 and 100 mg kg-1 doses (data not shown)): linear
Vd ([4]; mouse, in vivo, iv, single i.v. 20 mg kg-1, Balb/c mice, read-out: steady-state volume of distribution): 9.6 L/kg
Kp ([4]; mouse, iv, single i.v. 20 mg kg-1, Balb/c mice, brain, read-out: ratio between AUC for tissue:plasma, brain): 0.3
Kp ([4]; mouse, iv, single i.v. 20 mg kg-1, Balb/c mice, heart, read-out: ratio between AUC for tissue:plasma, heart): 16.9
Kp ([4]; mouse, iv, single i.v. 20 mg kg-1, Balb/c mice, liver, read-out: ratio between AUC for tissue:plasma, liver): 79.6
AUC ([4]; mouse, iv, single i.v. 20 mg kg-1, Balb/c mice, plasma, read-out: AUC from time 0- for plasma): 11.9 µg·h/mL
half-life ([4]; mouse, iv, single i.v. 20 mg kg-1, Balb/c mice, brain, read-out: apparent elimination half-life in brain (converted)): 1.15 h
half-life ([4]; mouse, iv, single i.v. 20 mg kg-1, Balb/c mice, heart, read-out: apparent elimination half-life in heart (converted)): 2 h
half-life ([4]; mouse, iv, single i.v. 20 mg kg-1, Balb/c mice, liver, read-out: apparent elimination half-life in liver (converted)): 4.93 h
half-life ([4]; mouse, iv, single i.v. 20 mg kg-1, Balb/c mice, plasma, read-out: apparent elimination half-life in plasma (converted)): 3.96 h
concentration that fully reverses resistance to a range of cytotoxic drugs in vitro [5]: 0.3 to 0.5 µM
potentiation of anti-tumour activity of doxorubicin ([6]; XR9051 40 mg kg-1 i.p. or p.o. with doxorubicin (2 mg kg-1), P < 0.01): significantly potentiated the anti-tumour activity
potentiation of anti-tumour activity of vincristine ([6]; XR9051 40 mg kg-1 i.p. or p.o. with vincristine 0.5 mg kg-1 i.p., P < 0.01): significantly potentiated the anti-tumour activity
tolerability of combination schedules ([6]; XR9051 with vincristine or doxorubicin): well-tolerated
survival, modulator alone ([1]; XR9051 alone by any route, mice bearing sensitive or resistant tumours): no effect on survival
lifespan of resistant tumour-bearing animals ([1]; XR9051 i.p. 5, 10 and 20 mg kg-1 with vincristine 0.1 mg kg-1 i.p., dose-dependent (data not shown)): increase in lifespan
survival of resistant leukaemia-bearing mice, combination vs cytotoxic drug alone ([1]; XR9051 i.v. 10, 20 or 40 mg kg-1 1 h before vincristine 0.1 mg kg-1 i.p.): significantly increased survival
survival of resistant leukaemia-bearing mice, combination vs cytotoxic drug alone ([1]; XR9051 p.o. 60, 80 or 120 mg kg-1 1 h before vincristine 0.1 mg kg-1 i.p.): significantly increased survival
toxicity of combination therapy as assessed by body weight loss ([1]; XR9051 with vincristine or doxorubicin (data not shown)): no significant increase in toxicity
oral potency relative to i.v. administration ([1]; xenograft and murine tumour models): two- to three-fold less
tumour growth rate compared with either drug alone ([7]; XR9051 10 mg kg-1 i.v. with Paclitaxel 20 mg kg-1 i.p., days 0, 2 and 4): significantly reduced tumour growth rate
tumour growth rate compared with either drug alone ([7]; XR9051 20 mg kg-1 i.v. with etoposide 30 mg kg-1 i.p., days 0, 5 and 11): significantly reduced tumour growth rate
tolerability of combination schedules as judged by changes in body weights ([7]; XR9051 i.v. with Paclitaxel or etoposide (data not shown)): well-tolerated
tumour growth inhibition, XR9051 alone ([8]; XR9051 alone, pilot experiments): no significant inhibitory activity
tumour growth on day 14 compared to cytotoxic drug alone ([8]; XR9051 i.p. 20 mg kg-1 at 0 and 4 h with doxorubicin 5 mg kg i.v. at 1 h): significant (P < 0.001) inhibition of tumour growth
body weight gain between the various groups ([8]; XR9051 i.p. or p.o. with doxorubicin): no differences in body weight gain
tumour growth on day 14 compared to cytotoxic drug alone ([8]; XR9051 p.o. 40 mg kg-1 at 0 and 4 h with doxorubicin 5 mg kg i.v. at 1 h): significant (P < 0.001) inhibition of tumour growth
bioavailability ([9]; Balb/c, oral, p.o. 50 mg kg-1 vs i.v., mice): ~46%
Tmax ([9]; po, p.o. 50 mg kg-1, Balb/c mice): ~3.4 h
AUC(0-t) ([9]; po, p.o. 50 mg kg-1, Balb/c mice, read-out: AUC0-24 h): 13.5 µg·h/mL
Cmax ([9]; po, p.o. 50 mg kg-1, Balb/c mice, read-out: Cmax in plasma): 1.3 µg/mL
Cmax ([9]; po, p.o. 50 mg kg-1, Balb/c mice, read-out: Cmax in plasma (molar)): 1.8 µM
survival time ([2]; P388/P-sensitive cells implanted i.p.): 12 days
lifespan of sensitive tumour-bearing animals, co-administration with cytotoxic drug ([2]; XR9051 20 or 40 mg kg-1 i.v. with vincristine or doxorubicin): did not further increase the lifespan
extent of reversal of resistance ([10]; XR9051 40 mg kg-1 with epirubicin, compared with sensitive 2780 tumours (Plumb et al, 1994)): full reversal of resistance
tumour growth rate compared with either drug alone ([10]; XR9051 i.p. 20-40 mg kg-1 2 h before and after epirubicin 10 mg kg-1 i.v., P < 0.01, dose related): significantly reduced growth rate
enhancement of sensitivity of MC26 cells to doxorubicin (MC26 cells): three-fold

Source: paper PMC2362811, “In vivo efficacy of XR9051, a potent modulator of P-glycoprotein mediated multidrug resistance” (British Journal of Cancer, 1999)
